Assay results taken from patent US9284350B2, “IAP BIR domain binding compounds” (Pharmascience Inc., priority 2010, dated 2016).

Legend:
[1] = system: Colorectal carcinoma HCT116 cells; assay: Cell death assay (MTT) in combination with HGS ETR1; assay type: cell-based; conditions: with HGS ETR1 30 ng/ml, 72 hours, read-out: HCT116+ mapatubimap EC50
Experimental: Colorectal carcinoma HCT116 cells were cultured as monolayers in 96 well plates at a density of 2000 cells per well in McCoy's 5a medium (HyClone) supplemented with 2.2 g/L sodium bicarbonate, 10% FBS (HyClone) and 1% penicillin/streptomycin (HyClone). 24 hours later, triplicate wells were treated with HGS ETR1 (30 ng/ml) in combination with compound. Cells were incubated in the presence of compound and HGS agonistic Trail receptor antibody, ETR1 (Mapatumamab, 30 ng/ml) for 72 hours. Metabolic viability of remaining cells was assessed by MTT (thiazolyl blue tetrazolium bromide, Sigma) assay.
EC50 values (50% cell survival in the presence of compound as compared to untreated controls) were calculated from survival curves using BioAssay software (CambridgeSoft) and GraphPad Prism (Graph Pad Software Inc.). The results are provided in Table 3, below, wherein A=less than 50 nM; B=less than 250 nM; C=less than 1000 nM; and D=greater than 1000 nM.

XIAP = molecular target: T1, XIAP (Homo sapiens, UniProt P98170); assay: Fluorescence polarization-based competition assay, XIAP; assay type: binding; conditions: FP assay, ki derived from IC50
T1 construct: fused on or other part: GST tag at the N-terminus (pGEX4T vectors)
Experimental: (§1) Binding of compounds of Formula 1 to target BIR domains was measured using a fluorescence-polarization (FP) assay. Fluorescence-polarization was evaluated using a GENios microplate reader (TECAN) Pro instrument with the excitation filter set at 485 nm and the emission filter set at 535 nm. The final amount of protein used in the assay corresponds to the amount of protein necessary to obtain 80% of the maximum FP value in a P1 or P2 fluorescent (FITC) probe saturation experiment. The compounds potency (IC50) and selectivity, was assessed in the presence of the amount of target protein established, fluorescent probe, and a 10 point serial dilution in assay buffer (50 mM Hepes, pH 7.5, 250 mcg/mL γ-globulin, 2 mM DTT, 1% DMSO) of the selected compounds.
(§2) Assays were carried out in duplicate using untreated black 96-well plates (Corning #3915) and a total volume of 100 microliters, containing 25 microliters of fluorescent probe at a final concentration of 2 nM in assay buffer, 25 microliters of diluted compound, 25 microliters of BIR protein into assay buffer and 25 microliters of assay buffer. Buffer only (blank) or probe only in buffer (G-factor) were used as controls for calibration. The plate was incubated at room temperature in the dark for one hour and FP values in millipolarization units (mP) were recorded using Genios Pro FP reader.
(§3) The measured FP values (mP) were then plotted against compound concentration, and IC50 values were calculated based on a sigmoidal dose-response (variable-slope) curve fit using GraphPad Prism version 4.02 for Windows, GraphPad Software, San Diego Calif. USA and/or CambridgeSoft BioAssay Enterprise Version 10.1. The IC50 value is the concentration of test compound at which 50% of the tracer was displaced. ki values were derived from the calculated IC50 values as described above and according to the equation described in Nikolovska-Coleska, Z. (2004) Anal Biochem 332, 261-273. The results are presented in Table 2, wherein A=less than 25 nM; B=less than 250 nM; C=less than 1000 nM; and D=greater than 1000 nM.

c-IAP1 = molecular target: T2, c-IAP1 (Homo sapiens, UniProt Q13490); assay: Fluorescence polarization-based competition assay, c-IAP1; assay type: binding; conditions: FP assay, ki derived from IC50
T2 construct: GST (N); made in house; host or cells: E. coli DH5α
Experimental: as §1, §2, §3

T1 sequence (P98170 246-497 limits assumed): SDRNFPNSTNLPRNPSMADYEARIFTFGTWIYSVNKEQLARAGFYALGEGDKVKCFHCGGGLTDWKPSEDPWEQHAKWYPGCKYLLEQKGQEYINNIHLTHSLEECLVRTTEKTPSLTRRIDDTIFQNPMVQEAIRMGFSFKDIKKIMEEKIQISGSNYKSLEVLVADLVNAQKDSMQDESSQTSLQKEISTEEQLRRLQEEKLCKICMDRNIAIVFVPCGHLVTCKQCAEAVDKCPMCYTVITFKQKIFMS
T2 sequence (Q13490 251-363): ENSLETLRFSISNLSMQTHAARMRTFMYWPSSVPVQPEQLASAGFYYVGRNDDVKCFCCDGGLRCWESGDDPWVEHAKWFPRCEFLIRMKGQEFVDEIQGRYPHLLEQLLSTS

Structure (SMILES)	Ki (XIAP) [nM]	Ki (c-IAP1) [nM]	EC50 [1] [nM]
CC[C@H](NC)C(=O)N[C@H](C(=O)N1CCC[C@H]1CN(CCc1ccccc1)C(=O)c1cn2cccnc2n1)C1CCCCC1 [Compound 1]	< 1000	< 25	< 250
CN[C@@H](C)C(=O)N[C@H](C(=O)N1CCC[C@H]1CN(CCc1ccccc1)C(=O)c1cn2cccnc2n1)C1CCOCC1 [Compound 3]	< 250	< 25	< 1000
CN[C@@H](C)C(=O)N[C@H](C(=O)N1CCC[C@H]1CN(CCc1ccccc1)C(=O)c1cn2cccnc2n1)C1CCCCC1 [Compound 5]	< 250	< 25	< 50
CN[C@@H](C)C(=O)N[C@H](C(=O)N1CCC[C@H]1CN(CCc1ccccc1)C(=O)c1cc2ccccn2c1)C(C)(C)C [Compound 8]	< 25	< 25	< 250
CN[C@@H](C)C(=O)N[C@H](C(=O)N1CCC[C@H]1CN(CCc1ccccc1F)C(=O)c1cn2cccnc2n1)C(C)(C)C [Compound 11]	< 250	< 25	< 250
CN[C@@H](C)C(=O)N[C@H](C(=O)N1CCC[C@H]1CN(CCc1ccccc1)C(=O)c1cn2ccccc2n1)C1CCCCC1 [Compound 13]	< 250	< 25	< 250
CN[C@@H](C)C(=O)N[C@H](C(=O)N1CCC[C@H]1CN(CCc1ccccc1)C(=O)c1cn2c(n1)CCCC2)C(C)(C)C [Compound 15]	< 250	< 25	< 250
CN[C@@H](C)C(=O)N[C@H](C(=O)N1CCC[C@H]1CN(CCc1ccccc1)C(=O)c1nc2ccccc2[nH]1)C(C)(C)C [Compound 16]	< 250	< 25	< 1000
CN[C@@H](C)C(=O)N[C@H](C(=O)N1CCC[C@H]1CN(CCc1ccccc1)C(=O)c1ncc[nH]1)C(C)(C)C [Compound 22]	< 250	< 25	< 250
CN[C@@H](C)C(=O)N[C@H](C(=O)N1CCC[C@H]1CN(CCc1ccccc1)C(=O)c1cn2cc(C)ccc2n1)C(C)(C)C [Compound 30]	< 250	< 25	< 250
CN[C@@H](C)C(=O)N[C@H](C(=O)N1CCC[C@H]1CN(CCc1ccccc1)C(=O)c1cn2cccnc2n1)C1CCCC1 [Compound 33]	< 250	< 25	< 250
CN[C@@H](C)C(=O)N[C@H](C(=O)N1CCC[C@H]1CN(CCc1ccc(F)cc1)C(=O)c1cnc2ncccn12)C(C)(C)C [Compound 38]	–	–	< 250
CN[C@@H](C)C(=O)N[C@H](C(=O)N1CCC[C@H]1CN(CCc1ccc(F)cc1)C(=O)c1cn2cc(F)ccc2n1)C(C)(C)C [Compound 39]	< 250	< 25	< 250
CN[C@@H](C)C(=O)N[C@H](C(=O)N1CCC[C@H]1CN(CCc1ccc(F)cc1)C(=O)C(=O)Nc1ccc(OC)cc1)C(C)(C)C [Compound 41]	< 250	< 25	< 1000
CN[C@@H](C)C(=O)N[C@H](C(=O)N1CCC[C@H]1CN(CCc1ccc(F)cc1)C(=O)C(=O)Nc1ccc(F)cc1)C(C)(C)C [Compound 42]	< 250	< 25	< 1000
CN[C@@H](C)C(=O)N[C@H](C(=O)N1CCC[C@H]1CN(CCc1ccc(F)cc1)C(=O)c1cn2cc(O)cnc2n1)C(C)(C)C [Compound 46]	< 250	< 25	< 1000
CN[C@@H](C)C(=O)N[C@H](C(=O)N1CCC[C@H]1CN(CCc1ccc(F)cc1)C(=O)c1cn2cc(-c3ccccc3)ccc2n1)C(C)(C)C [Compound 48]	< 250	< 25	< 50
CN[C@@H](C)C(=O)N[C@H](C(=O)N1CCC[C@H]1CN(CCc1ccc(F)cc1)C(=O)c1cn2cc(OC)ccc2n1)C(C)(C)C [Compound 51]	< 250	< 25	< 250
CN[C@@H](C)C(=O)N[C@H](C(=O)N1CCC[C@H]1CN(CCc1ccc(F)cc1)C(=O)c1cc(C)n(C)n1)C(C)(C)C [Compound 101]	–	–	< 50
CN[C@@H](C)C(=O)N[C@H](C(=O)N1CCC[C@H]1CN(CCc1ccc(F)cc1)C(=O)c1cnn(-c2ccc(F)cc2)n1)C1CCCCC1 [Compound 118]	–	–	< 250
CN[C@@H](C)C(=O)N[C@H](C(=O)N1C[C@@H](Oc2ccc(F)cc2)C[C@H]1CN(CCc1ccc(F)cc1)C(=O)c1cnn(-c2ccc(F)cc2)n1)C(C)(C)C [Compound 119]	–	–	< 250
CN[C@@H](C)C(=O)N[C@H](C(=O)N1C[C@@H](Oc2ccc(F)cc2)C[C@H]1CN(CCc1ccc(F)cc1)C(=O)c1cc(C)n(C)n1)C(C)(C)C [Compound 121]	–	–	< 50

Further lines, with some results ahead:

Ki (XIAP) [nM]	Ki (c-IAP1) [nM]	Structure (SMILES)	EC50 [1] [nM]
< 250	< 25	CN[C@@H](C)C(=O)N[C@H](C(=O)N1CCC[C@H]1CN(CCc1ccccc1)C(=O)C(=O)Nc1ccccc1)C(C)(C)C [Compound 9]	< 250
< 250	< 25	CN[C@@H](C)C(=O)N[C@H](C(=O)N1CCC[C@H]1CN(CCc1ccc(F)cc1)C(=O)c1cn2ccccc2n1)C1CCOCC1 [Compound 19]	< 50
< 250	< 25	CN[C@@H](C)C(=O)N[C@H](C(=O)N1CCC[C@H]1CN(CCc1ccccc1)C(=O)c1c[nH]cn1)C(C)(C)C [Compound 21]	< 1000
< 25	< 25	CN[C@@H](C)C(=O)N[C@H](C(=O)N1CCC[C@H]1CN(CCc1ccccc1)C(=O)c1ccc[nH]1)C(C)(C)C [Compound 23]	< 250
< 250	< 25	CN[C@@H](C)C(=O)N[C@H](C(=O)N1CCC[C@H]1CN(CCc1ccccc1)C(=O)c1c[nH]c2ccccc12)C(C)(C)C [Compound 24]	< 250
< 250	< 25	CN[C@@H](C)C(=O)N[C@H](C(=O)N1CCC[C@H]1CN(CCc1ccccc1)C(=O)c1cn(C)c2ccccc12)C(C)(C)C [Compound 25]	–
< 250	< 25	CN[C@@H](C)C(=O)N[C@H](C(=O)N1CCC[C@H]1CN(CCc1ccccc1)C(=O)c1cc2ccccc2n1C)C(C)(C)C [Compound 26]	< 1000
< 250	< 25	CN[C@@H](C)C(=O)N[C@H](C(=O)N1CCC[C@H]1CN(CCc1ccccc1)C(=O)c1cc2ccccc2[nH]1)C(C)(C)C [Compound 27]	< 1000
< 250	< 25	CN[C@@H](C)C(=O)N[C@H](C(=O)N1CCC[C@H]1CN(CCc1ccccc1)C(=O)c1cnc2ccccn12)C(C)(C)C [Compound 28]	< 1000
< 1000	< 25	CC[C@H](N)C(=O)N[C@H](C(=O)N1CCC[C@H]1CN(CCc1ccccc1)C(=O)c1cn2ccccc2n1)C1CCCCC1 [Compound 29]	> 1000
< 250	< 25	CN[C@@H](C)C(=O)N[C@H](C(=O)N1CCC[C@H]1CN(CCc1ccccc1)C(=O)c1cn2ccc(C)cc2n1)C(C)(C)C [Compound 31]	< 250
< 250	< 25	CN[C@@H](C)C(=O)N[C@H](C(=O)N1CCC[C@H]1CN(CCc1ccccc1)C(=O)c1cn(C)cn1)C(C)(C)C [Compound 34]	< 250
< 25	< 25	CN[C@@H](C)C(=O)N[C@H](C(=O)N1CCC[C@H]1CN(CCc1ccccc1)C(=O)c1cn2ccncc2n1)C(C)(C)C [Compound 35]	< 250
< 250	< 25	CN[C@@H](C)C(=O)N[C@H](C(=O)N1CCC[C@H]1CN(CCc1ccc(F)cc1)C(=O)c1cn2cc(NC(C)=O)ccc2n1)C(C)(C)C [Compound 43]	< 250
< 25	< 25	CN[C@@H](C)C(=O)N[C@H](C(=O)N1CCC[C@H]1CN(CCc1ccc(F)cc1)C(=O)c1cn2cc(N)ccc2n1)C(C)(C)C [Compound 45]	< 50
